Tests used:
[1] = target: T1, PR^NL H69D precursor (Human immunodeficiency virus type 1 group M subtype B, UniProt P12497, H557D); assay type: cell-based, HIV-1; settings: darunavir, Figure 2F
T1 construct: expressed in transfected cells; host or cells: HEK293T
Method: (§1) HEK293T cells (ATCC, Manassas, VA) were maintained in DMEM containing 10% fetal bovine serum and penicillin/streptomycin (0.6% Penicillin G sodium salt, 1.0% Streptomycin sulfate, 0.85% NaCl). Plasmid DNA was transfected into HEK293T cells using calcium phosphate as previously described [25, 46]. Briefly, HEK293T cells were seeded in 12-well plates the day before transfection to achieve 50~60% confluence at the time of transfection. About 1 h prior to transfection, chloroquine was added into each well to a final concentration of 25 μM. A total of 0.5 μg plasmid DNA in 65.7 μl H2O was mixed with 9.3 μl of 2 M CaCl2. Then 75 μl of 2xHBS (50 mM Hepes, pH7.04~7.05, 10 mM KCl, 12 mM Dextrose, 280 mM NaCl, 1.5 mM Na2HPO4) was added to the DNA-Ca mixture followed by gentle agitation. The resulting mixture was directly added drop-wise to each well. […] After 7-8 h incubation at 37°C, 5% CO2, the transfection medium was replaced with fresh chloroquine-free medium containing the corresponding protease inhibitors. […]
(§2) For quantification of protein intensity, Western blot images captured by an Odyssey infrared dual laser scanning unit were analyzed using TotalLab software (Nonlinear Dynamics Inc.). The total pixel volume of each band was quantified and normalized; the highest value was arbitrarily set at 1000.

[2] = test system: embedded protease of GST-M2-PR (tagless precursor); experiment: P site cleavage reaction, tagless precursor GST-M2-PR; assay type: cell-based, HIV-1; set-up: dose or concentration left out as unconfirmed; settings: […] nM darunavir
From the text: To examine whether different amino acid sequences fused to the C-terminus of PR influence protease autoprocessing, we engineered a panel of fusion precursors carrying different C-terminal epitopes (Figure 5A). A truncated version of M2 p6* (Figure 2A) was used to allow focused examination of the P site cleavage reaction. We also constructed GST-M2-PR, a precursor lacking any C-terminal epitope, to serve as a reference control.
HEK293T cells (ATCC, Manassas, VA) were maintained in DMEM containing 10% fetal bovine serum and penicillin/streptomycin (0.6% Penicillin G sodium salt, 1.0% Streptomycin sulfate, 0.85% NaCl). Plasmid DNA was transfected into HEK293T cells using calcium phosphate as previously described [25, 46]. Briefly, HEK293T cells were seeded in 12-well plates the day before transfection to achieve 50~60% confluence at the time of transfection. About 1 h prior to transfection, chloroquine was added into each well to a final concentration of 25 μM. A total of 0.5 μg plasmid DNA in 65.7 μl H2O was mixed with 9.3 μl of 2 M CaCl2. […]
as §2

[3] = target: embedded protease of GST-p6*-PR^NL-HA / GST-M1-PR^NL-HA fusion precursor (proximal site) (Human immunodeficiency virus type 1, UniProt P12497); experiment: P site cleavage reaction mediated by the embedded protease, PR^NL fusion precursor, HEK293T cells; assay type: cell-based, HIV-1; settings: darunavir; embedded vs released protease
Method: as §1, §2

[4] = test system: mature protease; settings: ref [40],[41]; cited from earlier work
[5] = test system: HIV-1 infected cells (p24 production); settings: ref [40],[41], read-out: IC50 to inhibit the production of p24; cited from earlier work
[6] = test system: in vitro translated Gag-Pol precursor; set-up: method as in PMID 15280456; settings: ref [21]; cited from earlier work

Structure (SMILES) | suppression of autoprocessing reactions mediated by the embedded H69D PR [1] | effect of treatment on the amount of the released proteases (H69D) ([1]; PR^NL H69D precursor) | suppression of the cleavage reaction, tagless precursor [2] | embedded protease less sensitive to inhibition than the corresponding released protease [3] | affinity for the catalytic site of the mature protease [4] | IC50 [5] | sensitivity of Gag-Pol precursor to inhibition compared to the mature protease [6]
CC(C)CN(C[C@@H](O)[C@H](Cc1ccccc1)NC(=O)O[C@H]1CO[C@H]2OCC[C@H]21)S(=O)(=O)c1ccc(N)cc1 [darunavir] | not suppressed | did not increase | not suppressed | at least 100 fold | low nanomolar | ~5 nM | –
CC(C)c1nc(CN(C)C(=O)N[C@H](C(=O)N[C@@H](Cc2ccccc2)C[C@H](O)[C@H](Cc2ccccc2)NC(=O)OCc2cncs2)C(C)C)cs1 [ritonavir] | – | – | – | – | – | – | significantly low sensitivity
